Calls of active or inactive are those of the source. The calls are words filed in the database; no cut-off is given here.
What was measured:
[1] = test system: Human immunodeficiency virus 1; test: Antiviral activity against HIV1 RF in human MT2 cells; assay type: functional, organism-based
[2] = test system: Human immunodeficiency virus 2; test: Inhibition of HIV2 reverse transcriptase
Escherichia coli [3] = test: DNA damaging activity against Escherichia coli K12 at 1 mg/ml by SOS chromotest agar spot test; assay type: functional, organism-based
[4] = Cytotoxicity against human melanoma cells after 48 hrs by SRB assay; assay type: functional; conditions: Melanoma cell, read-out: LC50 (the source's name)
[5] = biological target: Human immunodeficiency virus type 1 reverse transcriptase (Human immunodeficiency virus 1) (UniProt Q72547); test: Inhibition of HIV1 reverse transcriptase
[6] = biological target: Protease (Human immunodeficiency virus 1) (UniProt Q9YQ12); test: Inhibition of HIV1 protease expressed in Escherichia coli by immunoblotting
[7] = test system: Human immunodeficiency virus 1; test: Antiviral activity against HIV1 in human C8166 cells; assay type: functional, organism-based
CEM-SS = test: Cytotoxicity against human CEM-SS cells; assay type: cell-based
[8] = test system: Human immunodeficiency virus 2; test: Antiviral activity against HIV2 NIH-DZ assessed as cytoprotection; assay type: functional, organism-based
Escherichia coli [9] = test: DNA damaging activity against Escherichia coli BR513 containing lysogenic lambda-lacZ fusion phage at 1 mg/ml by biochemical prophage induction assay; assay type: functional, organism-based
[10] = test system: Human immunodeficiency virus 1; test: Antiviral activity against HIV1 3B in human H9 cells; assay type: functional, organism-based
[11] = test system: Human immunodeficiency virus 1; test: Antiviral activity against HIV1 in human CEM-SS cells after 6 days; assay type: functional, organism-based

Chain of Protease (Human immunodeficiency virus 1) (Q9YQ12 as listed by the source): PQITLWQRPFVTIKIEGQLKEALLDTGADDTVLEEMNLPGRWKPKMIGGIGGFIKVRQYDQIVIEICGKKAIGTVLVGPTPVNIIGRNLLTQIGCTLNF

| EC50 ([11]; Human immunodeficiency virus 1, CEM-SS, 144 h) [µM] | SMILES | Activity [1] | Activity [2] | Activity (Escherichia coli [3]) | CC50 [4] [µM] | Activity [5] | Activity [6] | Activity [7] | IC50 (CEM-SS) [µM] | Activity [8] | Activity (Escherichia coli [9]) | Activity [10] | Activity [11] [%] |
| --- | --- | --- | --- | --- | --- | --- | --- | --- | --- | --- | --- | --- | --- |
| – | CN1CCCCC1c1c(O)cc(O)c2c(=O)cc(-c3ccccc3)oc12 (stereo not given) | inactive | inactive | inactive | 0.1 | inactive | inactive | inactive | 0.66 | inactive | inactive | inactive | – |
| 142 | O=c1cc(-c2ccccc2)oc2c(C3CCCCN3)c(O)cc(O)c12 (stereo not given) | – | – | – | – | – | – | – | 142 | – | – | – | – |
| – | COc1cc(O)c(C2CCCCN2C)c2oc(-c3ccccc3)cc(=O)c12 (stereo not given) [BUCHENAVIANINE] | – | – | – | – | – | – | – | 5.7 | – | – | – | <50 |

Reference: ChEMBL document CHEMBL1159006, “Anti-HIV and cytotoxic alkaloids from Buchenavia capitata” (J Nat Prod, 1992)
